Legend:
Test in all cases: DiscoverX KinomeScreen kinase selectivity competition binding assay
[1] = biological target: T1, panel of ninety-seven kinases (Homo sapiens, UniProt P04049); conditions: RAF1; read-out: % Ctrl @ 3 μM
T1 construct: purchased DiscoverX; host or cells: T7 phage in E. coli (BL21-derived) for most kinases; HEK-293 for the rest
Outline: (§1)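 Site-directed competition binding: kinase (T7 phage-tagged or HEK-293-expressed, DNA-tagged) captured on immobilized biotinylated ligand beads, with compound at 3000 nM. Bound kinase eluted and quantified by qPCR. Reported as % Ctrl, with DMSO as 100% and control compound as 0%.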

[2] = biological target: T2, panel of ninety-seven kinases (Homo sapiens, UniProt Q9Y463); conditions: DYRK1B; read-out: % Ctrl @ 3 μM
T2 construct: purchased DiscoverX; host or cells: T7 phage in E. coli (BL21-derived) for most kinases; HEK-293 for the rest
Outline: as §1

[3] = biological target: T3, panel of ninety-seven kinases (Homo sapiens, UniProt Q15831); conditions: STK11; read-out: % Ctrl @ 3 μM
T3 construct: purchased DiscoverX; host or cells: T7 phage in E. coli (BL21-derived) for most kinases; HEK-293 for the rest
Outline: as §1

[4] = biological target: T4, panel of ninety-seven kinases (Homo sapiens, UniProt Q00536); conditions: CDK16; read-out: % Ctrl @ 3 μM
T4 construct: purchased DiscoverX; host or cells: T7 phage in E. coli (BL21-derived) for most kinases; HEK-293 for the rest
Outline: as §1

[5] = biological target: T5, panel of ninety-seven kinases (Homo sapiens, UniProt P49137); conditions: MAPKAPK2; read-out: % Ctrl @ 3 μM
T5 construct: purchased DiscoverX; host or cells: T7 phage in E. coli (BL21-derived) for most kinases; HEK-293 for the rest
Outline: as §1

[6] = biological target: T6, panel of ninety-seven kinases (Homo sapiens, UniProt Q9P1W9); conditions: PIM2; read-out: % Ctrl @ 3 μM
T6 construct: purchased DiscoverX; host or cells: T7 phage in E. coli (BL21-derived) for most kinases; HEK-293 for the rest
Outline: as §1

[7] = biological target: T7, panel of ninety-seven kinases (Homo sapiens, UniProt P45984); conditions: MAPK9; read-out: % Ctrl @ 3 μM
T7 construct: purchased DiscoverX; host or cells: T7 phage in E. coli (BL21-derived) for most kinases; HEK-293 for the rest
Outline: as §1

[8] = biological target: T8, panel of ninety-seven kinases (Homo sapiens, UniProt P36507); conditions: MAP2K2; read-out: % Ctrl @ 3 μM
T8 construct: purchased DiscoverX; host or cells: T7 phage in E. coli (BL21-derived) for most kinases; HEK-293 for the rest
Outline: as §1

[9] = biological target: T9, panel of ninety-seven kinases (Homo sapiens, UniProt Q9UPE1); conditions: SRPK3; read-out: % Ctrl @ 3 μM
T9 construct: purchased DiscoverX; host or cells: T7 phage in E. coli (BL21-derived) for most kinases; HEK-293 for the rest
Outline: as §1

[10] = biological target: T10, panel of ninety-seven kinases (Homo sapiens, UniProt P04626); conditions: ERBB2; read-out: % Ctrl @ 3 μM
T10 construct: purchased DiscoverX; host or cells: T7 phage in E. coli (BL21-derived) for most kinases; HEK-293 for the rest
Outline: as §1

[11] = biological target: T11, panel of ninety-seven kinases (Homo sapiens, UniProt Q9BWU1); conditions: CDK19; read-out: % Ctrl @ 3 μM
T11 construct: purchased DiscoverX; host or cells: T7 phage in E. coli (BL21-derived) for most kinases; HEK-293 for the rest
Outline: as §1

[12] = biological target: T12, panel of ninety-seven kinases (Homo sapiens, UniProt O60674); conditions: JAK2; read-out: % Ctrl @ 3 μM
T12 construct: purchased DiscoverX; host or cells: T7 phage in E. coli (BL21-derived) for most kinases; HEK-293 for the rest
Outline: as §1

[13] = biological target: T13, panel of ninety-seven kinases (Homo sapiens, UniProt P06213); conditions: INSR; read-out: % Ctrl @ 3 μM
T13 construct: purchased DiscoverX; host or cells: T7 phage in E. coli (BL21-derived) for most kinases; HEK-293 for the rest
Outline: as §1

[14] = biological target: T14, panel of ninety-seven kinases (Homo sapiens, UniProt O96013); conditions: PAK4; read-out: % Ctrl @ 3 μM
T14 construct: purchased DiscoverX; host or cells: T7 phage in E. coli (BL21-derived) for most kinases; HEK-293 for the rest
Outline: as §1

[15] = biological target: T15, panel of ninety-seven kinases (Homo sapiens, UniProt P16234); conditions: PDGFRA; read-out: % Ctrl @ 3 μM
T15 construct: purchased DiscoverX; host or cells: T7 phage in E. coli (BL21-derived) for most kinases; HEK-293 for the rest
Outline: as §1

[16] = biological target: T16, panel of ninety-seven kinases (Homo sapiens, UniProt Q9BXA7); conditions: TSSK1B; read-out: % Ctrl @ 3 μM
T16 construct: purchased DiscoverX; host or cells: T7 phage in E. coli (BL21-derived) for most kinases; HEK-293 for the rest
Outline: as §1

[17] = biological target: T17, panel of ninety-seven kinases (Homo sapiens, UniProt P21802); conditions: FGFR2; read-out: % Ctrl @ 3 μM
T17 construct: purchased DiscoverX; host or cells: T7 phage in E. coli (BL21-derived) for most kinases; HEK-293 for the rest
Outline: as §1

[18] = biological target: T18, panel of ninety-seven kinases (Homo sapiens, UniProt P78368); conditions: CSNK1G2; read-out: % Ctrl @ 3 μM
T18 construct: purchased DiscoverX; host or cells: T7 phage in E. coli (BL21-derived) for most kinases; HEK-293 for the rest
Outline: as §1

[19] = biological target: T19, panel of ninety-seven kinases (Homo sapiens, UniProt O00750); conditions: PIK3C2B; read-out: % Ctrl @ 3 μM
T19 construct: purchased DiscoverX; host or cells: T7 phage in E. coli (BL21-derived) for most kinases; HEK-293 for the rest
Outline: as §1

[20] = biological target: T20, panel of ninety-seven kinases (Homo sapiens, UniProt O14965); conditions: AURKA; read-out: % Ctrl @ 3 μM
T20 construct: purchased DiscoverX; host or cells: T7 phage in E. coli (BL21-derived) for most kinases; HEK-293 for the rest
Outline: as §1

T6 sequence (Q9P1W9 whole entry): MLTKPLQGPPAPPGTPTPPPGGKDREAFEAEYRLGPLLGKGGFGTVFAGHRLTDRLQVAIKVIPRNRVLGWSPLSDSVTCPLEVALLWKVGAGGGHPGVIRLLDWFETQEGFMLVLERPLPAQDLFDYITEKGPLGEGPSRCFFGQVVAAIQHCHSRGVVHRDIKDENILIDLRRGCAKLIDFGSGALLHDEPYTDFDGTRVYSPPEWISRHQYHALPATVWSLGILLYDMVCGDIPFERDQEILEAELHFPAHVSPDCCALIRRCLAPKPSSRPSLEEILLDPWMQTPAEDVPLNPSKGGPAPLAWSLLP
T16 sequence (Q9BXA7 whole entry): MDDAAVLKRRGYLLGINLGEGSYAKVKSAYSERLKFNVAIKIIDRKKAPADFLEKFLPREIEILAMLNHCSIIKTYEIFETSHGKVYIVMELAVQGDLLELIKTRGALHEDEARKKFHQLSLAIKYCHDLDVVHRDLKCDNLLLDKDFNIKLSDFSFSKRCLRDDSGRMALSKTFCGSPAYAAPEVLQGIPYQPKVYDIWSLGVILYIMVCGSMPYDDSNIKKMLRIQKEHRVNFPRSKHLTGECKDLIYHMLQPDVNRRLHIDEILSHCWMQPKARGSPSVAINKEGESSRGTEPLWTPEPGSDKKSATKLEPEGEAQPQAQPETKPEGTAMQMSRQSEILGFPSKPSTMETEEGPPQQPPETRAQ
T9 sequence (Q9UPE1 whole entry): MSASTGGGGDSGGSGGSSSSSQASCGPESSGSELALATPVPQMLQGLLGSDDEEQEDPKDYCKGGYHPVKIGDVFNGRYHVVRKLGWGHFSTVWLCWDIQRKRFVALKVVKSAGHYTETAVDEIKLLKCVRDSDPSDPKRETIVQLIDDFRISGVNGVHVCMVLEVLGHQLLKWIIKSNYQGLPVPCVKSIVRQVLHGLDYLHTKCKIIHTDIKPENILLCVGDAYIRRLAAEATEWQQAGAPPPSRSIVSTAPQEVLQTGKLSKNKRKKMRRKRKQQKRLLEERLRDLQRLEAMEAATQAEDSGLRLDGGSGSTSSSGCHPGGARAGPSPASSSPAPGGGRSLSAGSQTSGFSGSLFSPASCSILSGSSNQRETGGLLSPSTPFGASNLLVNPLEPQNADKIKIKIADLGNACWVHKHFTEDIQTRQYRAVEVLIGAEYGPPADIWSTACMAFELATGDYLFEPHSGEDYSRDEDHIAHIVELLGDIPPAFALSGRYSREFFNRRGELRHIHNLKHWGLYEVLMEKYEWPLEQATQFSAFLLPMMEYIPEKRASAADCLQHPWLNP
T10 sequence (P04626 23-1255): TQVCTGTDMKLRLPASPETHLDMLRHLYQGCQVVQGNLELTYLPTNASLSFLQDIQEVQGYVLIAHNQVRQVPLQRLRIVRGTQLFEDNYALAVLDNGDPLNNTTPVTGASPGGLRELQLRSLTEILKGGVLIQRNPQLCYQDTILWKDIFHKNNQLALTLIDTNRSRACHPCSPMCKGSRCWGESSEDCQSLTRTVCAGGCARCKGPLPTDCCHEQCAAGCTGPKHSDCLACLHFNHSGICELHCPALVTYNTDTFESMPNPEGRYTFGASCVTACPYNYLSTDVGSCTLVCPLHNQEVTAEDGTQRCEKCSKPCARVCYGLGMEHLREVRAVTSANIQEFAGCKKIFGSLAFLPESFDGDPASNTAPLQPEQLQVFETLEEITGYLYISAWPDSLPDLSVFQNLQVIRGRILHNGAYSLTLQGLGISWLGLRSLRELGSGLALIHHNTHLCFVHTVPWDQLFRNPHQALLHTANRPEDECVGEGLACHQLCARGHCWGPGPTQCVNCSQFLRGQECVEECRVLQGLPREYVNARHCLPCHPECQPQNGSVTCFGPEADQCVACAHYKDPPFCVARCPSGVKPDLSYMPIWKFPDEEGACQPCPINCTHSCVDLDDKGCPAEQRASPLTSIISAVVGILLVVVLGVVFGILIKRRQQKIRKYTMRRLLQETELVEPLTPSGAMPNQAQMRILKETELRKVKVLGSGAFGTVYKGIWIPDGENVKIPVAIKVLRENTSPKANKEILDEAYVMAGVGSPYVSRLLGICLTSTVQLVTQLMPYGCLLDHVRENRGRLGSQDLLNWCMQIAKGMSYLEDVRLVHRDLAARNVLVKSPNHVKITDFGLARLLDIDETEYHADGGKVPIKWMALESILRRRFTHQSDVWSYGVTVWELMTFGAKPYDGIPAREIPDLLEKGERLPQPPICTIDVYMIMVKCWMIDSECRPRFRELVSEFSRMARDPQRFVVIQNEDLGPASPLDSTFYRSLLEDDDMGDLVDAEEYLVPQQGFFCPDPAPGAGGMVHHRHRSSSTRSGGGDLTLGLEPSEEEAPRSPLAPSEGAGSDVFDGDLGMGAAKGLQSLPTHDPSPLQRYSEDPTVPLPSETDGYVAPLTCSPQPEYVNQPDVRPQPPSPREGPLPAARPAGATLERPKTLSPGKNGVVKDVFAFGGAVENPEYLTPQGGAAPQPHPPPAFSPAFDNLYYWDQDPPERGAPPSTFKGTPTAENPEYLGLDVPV
T2 sequence (Q9Y463 whole entry): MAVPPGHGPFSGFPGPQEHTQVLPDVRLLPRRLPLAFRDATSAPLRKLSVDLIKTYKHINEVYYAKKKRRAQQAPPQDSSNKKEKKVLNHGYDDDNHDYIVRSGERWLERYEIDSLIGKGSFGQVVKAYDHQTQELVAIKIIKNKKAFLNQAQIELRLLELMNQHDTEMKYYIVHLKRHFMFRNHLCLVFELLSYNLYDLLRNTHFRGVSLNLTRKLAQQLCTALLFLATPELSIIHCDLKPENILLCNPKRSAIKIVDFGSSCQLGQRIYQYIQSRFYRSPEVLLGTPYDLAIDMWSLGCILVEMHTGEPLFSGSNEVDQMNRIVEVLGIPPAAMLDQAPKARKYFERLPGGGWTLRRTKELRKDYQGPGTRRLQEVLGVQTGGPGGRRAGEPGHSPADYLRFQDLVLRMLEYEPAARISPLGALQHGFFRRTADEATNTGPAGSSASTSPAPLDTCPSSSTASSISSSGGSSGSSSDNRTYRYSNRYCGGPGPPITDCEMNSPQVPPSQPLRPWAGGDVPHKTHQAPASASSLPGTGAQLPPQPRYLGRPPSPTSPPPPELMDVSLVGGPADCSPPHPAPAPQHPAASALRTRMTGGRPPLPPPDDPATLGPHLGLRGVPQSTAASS
T19 sequence (O00750 whole entry): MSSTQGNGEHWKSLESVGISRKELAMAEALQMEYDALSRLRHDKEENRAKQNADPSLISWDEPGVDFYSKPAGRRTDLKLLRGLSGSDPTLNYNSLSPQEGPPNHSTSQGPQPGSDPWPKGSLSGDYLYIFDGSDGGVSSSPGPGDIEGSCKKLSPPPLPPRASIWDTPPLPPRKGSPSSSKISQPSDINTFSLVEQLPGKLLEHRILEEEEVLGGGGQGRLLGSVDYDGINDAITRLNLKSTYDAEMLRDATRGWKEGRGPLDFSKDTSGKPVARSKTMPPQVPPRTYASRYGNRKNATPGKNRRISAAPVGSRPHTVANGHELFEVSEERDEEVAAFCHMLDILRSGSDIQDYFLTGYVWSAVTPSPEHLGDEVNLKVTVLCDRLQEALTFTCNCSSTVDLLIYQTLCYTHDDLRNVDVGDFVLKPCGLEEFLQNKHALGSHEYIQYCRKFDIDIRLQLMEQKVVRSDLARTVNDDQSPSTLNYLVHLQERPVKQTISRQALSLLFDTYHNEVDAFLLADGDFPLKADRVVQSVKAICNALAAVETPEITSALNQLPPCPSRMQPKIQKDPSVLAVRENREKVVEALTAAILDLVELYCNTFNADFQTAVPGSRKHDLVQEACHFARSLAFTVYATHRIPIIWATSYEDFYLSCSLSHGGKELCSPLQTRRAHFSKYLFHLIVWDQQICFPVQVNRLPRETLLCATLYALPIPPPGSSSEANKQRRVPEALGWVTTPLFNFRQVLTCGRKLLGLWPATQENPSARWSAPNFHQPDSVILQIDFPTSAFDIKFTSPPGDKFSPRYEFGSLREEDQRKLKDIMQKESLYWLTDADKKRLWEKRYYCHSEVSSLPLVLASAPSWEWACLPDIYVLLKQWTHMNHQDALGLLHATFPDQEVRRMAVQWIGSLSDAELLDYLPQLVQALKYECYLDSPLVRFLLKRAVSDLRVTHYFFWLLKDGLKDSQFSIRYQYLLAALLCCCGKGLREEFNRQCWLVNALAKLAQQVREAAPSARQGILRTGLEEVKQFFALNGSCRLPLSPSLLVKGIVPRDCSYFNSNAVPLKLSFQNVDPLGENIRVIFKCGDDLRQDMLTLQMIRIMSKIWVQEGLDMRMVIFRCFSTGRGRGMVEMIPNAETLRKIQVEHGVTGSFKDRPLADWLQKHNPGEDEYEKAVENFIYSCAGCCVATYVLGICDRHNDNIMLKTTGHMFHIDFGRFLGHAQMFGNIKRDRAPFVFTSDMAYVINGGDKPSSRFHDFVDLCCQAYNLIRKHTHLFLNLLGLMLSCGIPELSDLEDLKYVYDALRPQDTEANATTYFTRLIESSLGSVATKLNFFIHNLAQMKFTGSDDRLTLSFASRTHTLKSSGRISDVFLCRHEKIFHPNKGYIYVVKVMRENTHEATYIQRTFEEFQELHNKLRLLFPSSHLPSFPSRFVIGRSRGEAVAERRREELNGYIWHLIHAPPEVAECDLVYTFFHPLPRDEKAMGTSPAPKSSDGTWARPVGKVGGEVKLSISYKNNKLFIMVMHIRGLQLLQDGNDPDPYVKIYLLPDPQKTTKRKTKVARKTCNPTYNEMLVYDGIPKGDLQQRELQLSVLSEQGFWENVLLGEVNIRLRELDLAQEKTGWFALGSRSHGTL

Q: For `CN(C)CCNC(=O)c1ccc(-c2ccc(-c3ccc(Cl)cc3)n2-c2ccccc2C(F)(F)F)cc1` (single isomer, unassigned) [Atropisomer A-2, 4-[5-(4-chlorophenyl)-1-[2-(trifluoromethyl)phenyl]pyrrol-2-yl]-N-[2-(dimethylamino)ethyl]benzamide], which percent of control kinase binding to immobilized ligand at 3 µM [1] is on record?
A: Its percent of control kinase binding to immobilized ligand at 3 µM is 92%.

Q: What about the percent of control kinase binding to immobilized ligand at 3 µM [2] of the same molecule?
A: Its percent of control kinase binding to immobilized ligand at 3 µM is 97%.

Q: What about the percent of control kinase binding to immobilized ligand at 3 µM [3] of the same molecule?
A: Its percent of control kinase binding to immobilized ligand at 3 µM is 81%.

Q: And the percent of control kinase binding to immobilized ligand at 3 µM [4]?
A: Its percent of control kinase binding to immobilized ligand at 3 µM is 100%.

Q: And the percent of control kinase binding to immobilized ligand at 3 µM [5]?
A: The percent of control kinase binding to immobilized ligand at 3 µM was 75%.

Q: What about the percent of control kinase binding to immobilized ligand at 3 µM [6] of the same molecule?
A: Its percent of control kinase binding to immobilized ligand at 3 µM is 100%.

Q: What about the percent of control kinase binding to immobilized ligand at 3 µM [7] of the same molecule?
A: Its percent of control kinase binding to immobilized ligand at 3 µM is 80%.

Q: What about the percent of control kinase binding to immobilized ligand at 3 µM [8] of the same molecule?
A: Its percent of control kinase binding to immobilized ligand at 3 µM is 81%.

Q: And the percent of control kinase binding to immobilized ligand at 3 µM [9]?
A: The percent of control kinase binding to immobilized ligand at 3 µM was 71%.

Q: What about the percent of control kinase binding to immobilized ligand at 3 µM [10] of the same molecule?
A: Its percent of control kinase binding to immobilized ligand at 3 µM is 66%.

Q: What about the percent of control kinase binding to immobilized ligand at 3 µM [11] of the same molecule?
A: Its percent of control kinase binding to immobilized ligand at 3 µM is 81%.

Q: And the percent of control kinase binding to immobilized ligand at 3 µM [12]?
A: The percent of control kinase binding to immobilized ligand at 3 µM was 80%.

Q: What about the percent of control kinase binding to immobilized ligand at 3 µM [13] of the same molecule?
A: Its percent of control kinase binding to immobilized ligand at 3 µM is 100%.

Q: And the percent of control kinase binding to immobilized ligand at 3 µM [14]?
A: Its percent of control kinase binding to immobilized ligand at 3 µM is 100%.

Q: And the percent of control kinase binding to immobilized ligand at 3 µM [15]?
A: The percent of control kinase binding to immobilized ligand at 3 µM was 100%.

Q: And the percent of control kinase binding to immobilized ligand at 3 µM [16]?
A: The percent of control kinase binding to immobilized ligand at 3 µM was 100%.

Q: And the percent of control kinase binding to immobilized ligand at 3 µM [17]?
A: Its percent of control kinase binding to immobilized ligand at 3 µM is 85%.

Q: And the percent of control kinase binding to immobilized ligand at 3 µM [18]?
A: The percent of control kinase binding to immobilized ligand at 3 µM was 100%.

Q: What about the percent of control kinase binding to immobilized ligand at 3 µM [19] of the same molecule?
A: Its percent of control kinase binding to immobilized ligand at 3 µM is 100%.

Q: What about the percent of control kinase binding to immobilized ligand at 3 µM [20] of the same molecule?
A: Its percent of control kinase binding to immobilized ligand at 3 µM is 98%.
